Measurements as given in patent US20070021421A1 (priority 2005, published 2007).
“Also recorded” adds a separate entry of the source. Read-outs that look alike come from different tables or passages of the source.

What was measured:
mice = settings: cited from earlier work
C57BL/6J mice = tested on: C57BL/6J mice
Text: Since PD, HD, and ALS share aspects of pathogenesis and pathology of motor dysfunction, gait dynamics were also studied in the SOD1 G93A transgenic mouse model of ALS (Gurney et al. Science 1994, 264: 1772-1775) to compare gait variability in mouse models of basal ganglia disease to a mouse model of motor neuron disease. Male C57BL/6J mice (7-8 weeks; ˜22 gm) were purchased from The Jackson Laboratory (Bar Harbor, Me.). Mice transgenic for the mutated human SOD1 G93A (TgN[SOD1-G93A]lGur) (SOD1 G93A) and wild-type human SOD1 (TgN[SOD1]2Gur) (wild-type controls) were purchased from The Jackson Laboratory (Bar Harbor, ME) when the mice were ˜7.5 weeks old. Animals were maintained on a 12-hour light: 12-hour dark schedule with ad libitum access to food and water. Handling and care of mice were consistent with federal guidelines and approved institutional protocols.
MPTP. A mouse model of PD was generated in the following manner. The dopaminergic neurotoxin 1-methyl-4-phenyl-1,2,3,6-tetrahydropyridine (MPTP) (Sigma-Aldrich, St. Louis, Mo.) was dissolved in saline and was administered 30 mg/kg i.p. to 7 mice every 24 hours for 3 days (MPTP-treated mice), based on previously published studies (Colotla et al. Neurotoxicol Teratol 1990, 12: 405-407; Shimoji et al. Brain Res Mol Brain Res 2005, 134:103-108). Equivolume (0.2 ml) of saline was administered i.p. to 7 control mice every 24 hours for 3 days (saline-treated mice).
3NP. A mouse model of HD was generated in the following manner. The mitochondrial toxin 3-nitropropionic acid (3NP) (Sigma-Aldrich, St. Louis, Mo.) was dissolved in saline and was administered 3 times to 6 mice: 25 mg/kg i.p. twice, separated by 12 hours (cumulative dose of 50 mg/kg), then 25 mg/kg 24 hours later (cumulative dose of 75 mg/kg) (3NP-treated mice). Equivolume (0.2 ml) of saline was administered i.p. according to the same schedule to 6 control mice.
(§1) Gait dynamics were recorded using ventral plane videography, as previously described (Kale et al. Alcohol Clin Exp Res 2004, 28: 1839-1848; Hampton et al. Physiol Behav 2004, 82: 381-389). Briefly, a motor-driven treadmill with a transparent treadmill belt was built. A high-speed digital video camera was mounted below the transparent treadmill belt. An acrylic compartment, ˜5 cm wide by ˜25 cm long, the length of which was adjustable, was mounted on top of the treadmill to maintain the mouse that was walking on the treadmill belt within the view of the camera. Digital video images of the underside of mice were collected at 80 frames per second. Accordingly, each image obtained represented a 12.5 ms time interval; and the paw area of each image indicated the temporal placement of the paw relative to the treadmill belt. The color images were converted to their binary matrix equivalents, and the areas (in pixels) of the approaching or retreating paws relative to the belt and camera were calculated throughout each stride. Plotting the area of each digital paw print (paw contact area) imaged sequentially in time provided a dynamic gait signal, representing the temporal record of paw placement relative to the treadmill belt (refer to FIGS. 1A and 1B). From these digital paw print images, indices of gait and gait variability were determined. Each gait signal for each limb comprised a stride duration (stride time), which included the stance duration when the paw of a limb was in contact with the walking surface, plus the swing duration when the paw of the same limb was not in contact with the walking surface. Stance duration was further subdivided into braking duration (increasing paw contact area over time) and propulsion duration (decreasing paw contact area over time) (refer to FIG. 1B).
Stride frequency was calculated by counting the number of gait signals over time. Stride length was calculated from the equation: speed=stride frequency X stride length.

rats = settings: MPTP 3 mg/kg; rats (Tsai et al.); cited from earlier work
ALS patients = settings: cited from earlier work
SOD1 G93A mice = test: Propranolol in drinking water of the SOD1 G93A mouse model of ALS (gait, walking ability, survival, body weight); type: in vivo
Text: as §1, with “Briefly,” for “Gait dynamics were recorded using ventral plane videography, as previously described (Kale et al. Alcohol Clin Exp Res 2004, 28: 1839-1848; Hampton et al. Physiol Behav 2004, 82: 381-389). Briefly,”, “Accordingly, each image obtained represented a 12.5 ms time interval; and the paw area of each image indicated the temporal placement of the paw relative to the treadmill belt.” left out
Stride frequency was calculated by counting the number of gait signals over time. Stride length was calculated from the equation: speed=stride frequency X stride length. To obtain stance widths and paw placement angles at full stance, ellipses were fitted to the paws, and the centers, vertices, and major axes of the ellipses were determined. Forelimb and hind limb stance widths were calculated as the perpendicular distance between the major axes of the left and right paw images during peak stance. Gait data were collected and pooled from both the left and right forelimbs, and the left and right hind limbs.
Accordingly, five SOD1 G93A mice were treated with propranolol, the drug having been added to their drinking water beginning at six weeks of age.

[1] = cumulative dose of 560 mg/kg of 3NP
[2] = 3NP 75 mg/kg cumulative dose, 34 cm/s, n=3
[3] = 3NP 75 mg/kg cumulative dose, mice that could walk
[4] = 3NP 75 mg/kg cumulative, two mice with hind limb gait failure, forelimb stepping only
[5] = after 2nd administration of 3NP (50 mg/kg cumulative)
[6] = MPTP 90 mg/kg cumulative dose, 34 cm/s
[7] = MPTP after 3 treatments, 34 cm/s
[8] = MPTP, 3 administrations of 30 mg/kg, 34 cm/s

## O=C(O)CC[N+](=O)[O-] [3NP, 3-nitropropionic acid]
mice; [1]
  forelimb stride length: comparable to saline-treated mice
  hind limb stride length: shortened
mice; cumulative dose of 3NP 340 mg/kg
  stride length of forelimbs and hind limbs: no differences
C57BL/6J mice; 3NP 75 mg/kg cumulative dose i.p., 34 cm/s, n=3 mice that could walk
  stride length: 7.3 ± 0.1 cm
C57BL/6J mice; [2]
  % Stance Duration: 59.4±2.3%
  % Swing Duration: 40.6±2.3%
  Forelimb Paw Placement Angle: 3.5 ± 1.1 °
  Forelimb Stance Width: 1.7 ± 0.1 cm
  Hind limb Paw Placement Angle: 15.2±1.0 °
  Hind limb Stance Width: 2.8±0.2 cm
  Stride Duration: 217 ± 5 ms
  Stride Frequency: 4.9 ± 0.1 Hz
  percentage of stance duration spent in propulsion (propulsion/stance) of the hind limbs: 45.2±2.5%
C57BL/6J mice; [3]
  CV of forelimb stance width: 17.3±2.4%
  CV of forelimb stride length: 17.9±1.6%
  Stance width variability of the forelimbs: 0.31±0.04 cm
C57BL/6J mice; 3NP 75 mg/kg cumulative dose, mice that could walk, vs saline-treated mice
  Hind limb stride length variability and hind limb stance width variability: not different
C57BL/6J mice; 3NP 75 mg/kg cumulative dose, three mice that could walk
  Stride length variability of the forelimbs: 1.31±0.09 cm
C57BL/6J mice; [4]
  stance duration (forelimbs): 133 ± 5 ms
  stride frequency (forelimbs): 5.0±0.1 Hz
  stride length of forelimbs: 7.1±0.1 cm
C57BL/6J mice; after 1st and 2nd administrations of 25 mg/kg 3NP
  Stride length, stride frequency, stance duration, and swing duration: not affected
C57BL/6J mice; [5]
  CV of forelimb stance width: 15.0±1.2%
  Stance width variability of the forelimbs: 0.28±0.01 cm
  stride length variability and stance width variability of the hind limbs: Neither stride length variability nor stance width variability of the hind limbs was affected
C57BL/6J mice; after 2nd administration of 3NP (cumulative dose of 50 mg/kg), n=6
  paw placement angle of the hind limbs: 16.6±1.2 °
C57BL/6J mice; after 3rd administration (75 mg/kg cumulative dose), 34 cm/s, 6 mice
  3NP-treated mice that could not walk on the treadmill belt: half
C57BL/6J mice; aggressive (higher) doses of 3NP, data not shown
  effect of aggressive doses: high mortality or the inability of the mice to walk at all on the treadmill belt

## CN1CC=C(c2ccccc2)CC1 [MPTP, 1-methyl-4-phenyl-1,2,3,6-tetrahydropyridine]
rats
  stride length: significantly reduce stride length
C57BL/6J mice; [6]
  Forelimb Paw Placement Angle: 2.6 ± 0.4 °
  Forelimb Stance Width: 1.6 ± 0.1 cm
  Hind limb Paw Placement Angle: 10.8 ± 1.3 °
  Hind limb Stance Width: 2.2 ± 0.1 cm
C57BL/6J mice; MPTP 90 mg/kg cumulative dose, 34 cm/s, n=7
  Stride Duration: 194 ± 1 ms
C57BL/6J mice; MPTP 90 mg/kg cumulative dose, 34 cm/s, stance/stride
  % Stance Duration: 55.9 ± 1.1%
C57BL/6J mice; MPTP 90 mg/kg cumulative dose, 34 cm/s, swing/stride
  % Swing Duration: 44.1 ± 1.1%
C57BL/6J mice; [7]
  CV of forelimb stance width: 16.7±1.3%
  CV of hind limb stance width: 9.1±1.1%
  Stance width variability of the forelimbs: 0.26±0.01 cm
  Stance width variability of the hind limbs: 0.20±0.02 cm
  coefficient of variation (CV) of forelimb stride length: 13.6±0.8%
C57BL/6J mice; MPTP after 3 treatments, 34 cm/s, NS vs saline
  CV of hind limb stride length: 10.0±1.5%
C57BL/6J mice; MPTP after 3 treatments, standard deviation, 34 cm/s
  Stride length variability of the forelimbs: 0.91±0.04 cm
C57BL/6J mice; MPTP after 3 treatments, vs saline-treated mice
  Stride length variability of the hind limbs: not different
C57BL/6J mice; [8]
  stance duration of the forelimbs: 116 ± 2 ms
  swing duration of the hind limbs: 92 ± 3 ms

## Nc1nc2ccc(OC(F)(F)F)cc2s1 [Riluzole]
ALS patients
  side effects: causes liver damage

## CC(C)NCC(O)COc1cccc2ccccc12 (centres unmarked) [propranolol]
SOD1 G93A mice; age 12 weeks through 18 weeks
  increase in paw placement angle variability with disease progression: blunted or prevented; also recorded: prevented or diminished
SOD1 G93A mice; propranolol in drinking water from age ~42 days, five mice
  extent of gait disturbances: mitigated and delayed
SOD1 G93A mice; propranolol in drinking water, vs longer strides with untreated tap water
  stride length: more normal
SOD1 G93A mice; relative to tap water-treated control mice, FIG. 8
  body weight: reduction in body weight
SOD1 G93A mice; ~16 weeks of age, tap water controls one out of five
  mice that could successfully walk on a moving treadmill belt: three out of five
SOD1 G93A mice; ~age 17 weeks, five mice per group, tap water controls one
  mice surviving: 3
